According to patent US20250235520A1, “METHODS FOR REVERSING A SUPPRESSED IMMUNE STATE TO INCREASE SURVIVAL IN A SUBJECT” (priority 2022, published 2025):

Columns and labels:
[1] = test system: breast cancer patients with tumors expressing HER2 (HER2 3+); assay: Phase IIb trial (NCT00524277): disease free survival / recurrence; type: in vivo, human; conditions: HER2 3+ patients who completed the primary immunization series after trastuzumab; 5 years of follow-up
[2] = test system: breast cancer patients with tumors expressing any degree of HER2; assay: Phase IIb trial: injection site reactions (ISRs), orthogonal mean of largest perpendicular diameters; type: in vivo, human
Procedure: Background: Delayed type hypersensitivity (DTH) skin tests in the randomized, active-controlled, single-blinded, multicenter Phase IIb trial investigating GLSI-100 (GP2+GM-CSF) administered in the adjuvant setting to node-positive and high-risk node-negative breast cancer patients with tumors expressing any degree of HER2 (immuno-histochemistry [IHC] 1-3+) (NCT00524277) were analyzed. The trial enrolled HLA-A*02 patients randomized to receive GLSI-100 versus GM-CSF alone. The trial's primary objective was to determine if treatment with GLSI-100, a HER2-derived peptide, reduces recurrence rates.
Methods: Patients were randomized and received GLSI-100 (500 micrograms (mcg) GP2 and 125 mcg GM-CSF) or control (GM-CSF) via 6 intradermal injections every 3-4 weeks for the first 6 months and 4 booster injections every 6 months. The magnitude of injection site reactions, which occurred in almost all patients, were assessed for the 10 doses administered by measuring the largest perpendicular diameters and the resulting orthogonal mean.

Substance | Kaplan-Meier estimated 5-year disease free survival (DFS) rate [1] [%] | median orthogonal mean induration ([2]; after a single dose) [mm] | patients with injection site reactions ([2]; all treated patients) [%] | difference in reactions, HER2 3+ control patients (Herceptin treated) smaller than HER2 1-2+ control patients ([2]; average over all 10 doses) [mm] | increase of injection site reactions by adding GP2 treatment ([2]; trastuzumab treated HER2 3+ patients vs GM-CSF control, average over all 10 doses) [mm]
GM-CSF: granulocyte macrophage colony-stimulating factor, adjuvant; control arm (called placebo) of the active-controlled trial | 89.4 | 7.8 | ~100 | 43.1 | 
Ile Ile Ser Ala Val Val Gly Ile Leu (IISAVVGIL) [GP2, 9 amino acid transmembrane peptide of the HER2/neu protein] |  |  |  |  | 39.2
